From patent US20240041854A1, “COLD MEDICINE AND ANTIVIRAL MEDICINE” (OTSUKA PHARMACEUTICAL FACTORY, INC., priority 2020, published 2024) come the findings set out here.

The structures appear in SMILES notation. Where two headings read alike, the source gives them in different places.

What all share (assay type): cell-based
The subject of assay [1] is human coronavirus HCoV-229E. Also noted: unit not given here. The settings on record: MRC-5 cells, qPCR. (Quantitative PCR measures a nucleic acid by following its amplification.)
In assay [2] the test system is human coronavirus OC43 (ATCC VR1588). The assay is described as follows: Pharmacological Test 2: OC43 infection of HCT-8 host cells, virus RNA quantified by RT-qPCR. The settings on record: HCT-8 cells. Details: unit not given here. An excerpt:
Compound X described above was used as the test compound. […] Comparative Compound 2 used herein was chloroquine phosphate, which has temporarily been approved by the US Food and Drug Administration (FDA) for emergency use in patients with new coronavirus infection.

For assay [3], the system named is SARS-CoV-2 (hCoV-19/Germany/BY-ChVir-929/2020). Briefly: Pharmacological Test 3: SARS-CoV-2 infection of Vero E6 host cells, virus amount in culture supernatant by qPCR (Ct value). The conditions noted are these: for Ct value (average value): Vero E6 cells, SARS-CoV-2, culture supernatant. The protocol: Compound X described above was used as the test compound. Vero E6 (ATCC CRL1586) was used as a host cell, and this was cultured on a 96-well plate until a monolayer sheet was obtained. Next, the medium was removed, 50 μL of a mixed suspension medium of SARS-CoV-2 (hCoV-19/Germany/BY-ChVir-929/2020) and a predetermined dose of the test compound was added, and the resultant was allowed to stand at 37° C. for 1 hour. The virus concentration was 150 PFU/well. Subsequently, the medium was removed, and the cells were washed with PBS. Then, a new medium mixed with the same dose of the test compound as before was added, and the cells were cultured at 37° C. overnight. After culturing, the virus amount in the culture supernatant was quantified by qPCR. As the primers and probe, the new coronavirus N1 protein-specific primers and probe specified by the Centers for Disease Control and Prevention (CDC) were used, and the conditions were also in accordance with the conditions specified by the CDC. The number of PCR cycles (Ct value) until the signal intensity of the PCR product reached a predetermined intensity (threshold value) was determined.

Regarding `COc1cc(OCc2ncc(C(F)(F)F)cc2F)ccc1-c1nc(-c2ccc(F)nc2)[nH]c1Cl` [Compound X, 2-[[4-(5-chloro-2-(6-fluoropyridin-3-yl)-1H-imidazol-4-yl)-3-methoxyphenoxy]methyl]-3-fluoro-5-(trifluoromethyl) pyridine], the Virus amount was 9.E+06 in assay [1] (0.78 μM test substance); 1.E+07 in assay [1] (1.58 μM test substance); 5.E+06 in assay [1] (3.1 μM test substance); 5.E+06 in assay [1] (6.3 μM test substance); 1.E+06 in assay [1] (12.5 μM test substance); 4.E+02 in assay [1] (25 μM test substance). Further, the Virus amount in assay [1] (50 μM test substance) was found to be 3.E+03; in assay [2] (0.78 μM test compound) it was 3.E+08; in assay [2] (1.6 μM test compound), 5.E+08; in assay [2] (3.1 μM test compound), 6.E+08; in assay [2] (6.2 μM test compound), 1.E+08; in assay [2] (12.5 μM test compound), 2.E+05. The Virus amount in assay [2] (25 μM test compound) and in assay [2] (50 μM test compound) was 1.E+05 throughout. For the same molecule, the “Ct value (average value)” value turned out to be 21.0 in assay [3] (0.78 μM test compound); 21.1 in assay [3] (1.56 μM test compound); 20.9 in assay [3] (3.13 μM test compound); 21.7 in assay [3] (6.25 μM test compound); 24.7 in assay [3] (12.50 μM test compound); 24.8 in assay [3] (25.00 μM test compound). Further, the “Ct value (average value)” value in assay [3] (50.00 μM test compound) is 24.5. In addition, the “infection-suppressing effect on SARS-CoV-2” value in assay [3] (in words, Vero E6) is “showed an infection-suppressing effect on SARS-CoV-2”.

With `NC(=O)c1nc(F)c[nH]c1=O` [compound 1, favipiravir], the Virus amount in assay [2] (0.78 μM test compound) is on record as 4.E+08; in assay [2] (1.58 μM test compound), 3.E+08; in assay [2] (3.1 μM test compound) it was 3.E+08; in assay [2] (6.3 μM test compound) it was 3.E+08; in assay [2] (12.5 μM test compound), 2.E+08; in assay [2] (25 μM test compound), 2.E+08. Moreover, the Virus amount in assay [2] (50 μM test compound) came out at 6.E+08.

In the case of `Fc1ccc(-c2nc(-c3ccc(OCc4ncc(C(F)(F)F)cc4F)cc3Cl)c(Cl)[nH]2)cn1` [Compound Z, 2-[[3-chloro-4-(5-chloro-2-(6-fluoropyridin-3-yl)-1H-imidazol-4-yl)phenoxy]methyl]-3-fluoro-5-(trifluoromethyl)pyridine], the Virus amount in assay [1] (0.78 μM test substance) amounted to 3.E+08; in assay [1] (1.58 μM test substance), 1.E+08; in assay [1] (3.1 μM test substance) it was 3.E+08; in assay [1] (6.3 μM test substance), 3.E+08; in assay [1] (12.5 μM test substance), 8.E+07; in assay [1] (25 μM test substance), 2.E+05. The molecule also came in with a Virus amount in assay [1] (50 μM test substance) of 4.E+04.

On to `NC(=O)c1nccnc1O` [Comparative compound, 3-Hydroxypyrazine-2-carboxamide, reference compound], for which the Virus amount in assay [1] (1.6 μM test substance) is 1.E+07; in assay [1] (3.1 μM test substance) it was 7.E+06; in assay [1] (6.3 μM test substance), 9.E+06; in assay [1] (12.5 μM test substance), 5.E+06; in assay [1] (25 μM test substance) it was 2.E+07; in assay [1] (50 μM test substance), 2.E+07. In addition, in assay [1] (100 μM test substance), the Virus amount is recorded as 2.E+07.

For `COc1cc(OCc2ncc(C(F)(F)F)cc2F)ccc1-c1nc(-c2ccc(F)nc2)[nH]c1Br` [Compound Y, 2-[[4-(5-bromo-2-(6-fluoropyridin-3-yl)-1H-imidazol-4-yl)-3-methoxyphenoxy]methyl]-3-fluoro-5-(trifluoromethyl)pyridine], the Virus amount in assay [1] (0.78 μM test substance) is listed as 2.E+08; in assay [1] (1.6 μM test substance) it was 1.E+08; in assay [1] (3.1 μM test substance), 1.E+08; in assay [1] (6.2 μM test substance), 1.E+08; in assay [1] (12.5 μM test substance) it was 8.E+07; in assay [1] (25 μM test substance) it was 4.E+04. Besides, in assay [1] (50 μM test substance), the Virus amount is listed as 3.E+04.

Turning to `CCN(CC)CCCC(C)Nc1ccnc2cc(Cl)ccc12` (stereo not drawn) [compound 2, chloroquine phosphate], the Virus amount in assay [2] (0.78 μM test compound) is 2.E+08; in assay [2] (1.58 μM test compound), 3.E+08; in assay [2] (3.1 μM test compound), 4.E+08; in assay [2] (6.3 μM test compound), 6.E+08; in assay [2] (12.5 μM test compound), 6.E+07; in assay [2] (25 μM test compound), 3.E+06. The same molecule returned a Virus amount in assay [2] (50 μM test compound) of 9.E+06.
